Measured values: ChEMBL document CHEMBL1150983, “Synthesis of novel taxol analogs and evaluation of their biological activities” (1997)

tested on: J774.2; test: Cytotoxicity tested against J774.2 cells.; type: functional; details: Mus musculus, read-out: ED50 (the source's name)

SMILES	EC50 [nM]
CC(=O)O[C@H]1C(=O)[C@@]2(C)[C@H]([C@H](OC(=O)c3ccccc3)[C@]3(O)C[C@H](OC(=O)[C@H](O)[C@@H](NC(=O)c4ccccc4)c4ccccc4)C(C)=C1C3(C)C)[C@]1(OC(C)=O)CO[C@@H]1C[C@@H]2O [PACLITAXEL]	16
CC(=O)O[C@H]1C(=O)[C@@]2(C)[C@H]([C@H](OC(=O)c3ccccc3)[C@]3(O)C[C@H](OC(=O)[C@H](O)[C@@H](NC(=O)c4ccccc4)c4ccccc4)C(C)=C1C3(C)C)[C@]1(OC(C)=O)CO[C@@H]1[C@@H]2O	250
CC(=O)O[C@@]12CO[C@@H]1C[C@@H](O)[C@@]1(C)C(=O)c3[se]cc4c3[C@@](C(C)(C)O)(C[C@@H]4OC(=O)[C@H](O)[C@@H](NC(=O)c3ccccc3)c3ccccc3)[C@@H](OC(=O)c3ccccc3)[C@H]21	900
